According to article PMC9184693, “Molecular mechanism of interaction between fatty acid delta 6 desaturase and acyl-CoA by computational prediction” (AMB Express, 2022):

Target: T1, MpFADS6 (Micromonas pusilla delta 6 desaturase) (Micromonas pusilla, UniProt C1MMV2)
T1 construct: gene MICPUCDRAFT_32578; pYES2-MpFADS6 expressed in Saccharomyces cerevisiae INVSc1; membrane protein, whole-cell biotransformation
Assay: whole-cell biotransformation in yeast, GC-MS of fatty acid methyl esters
Type: cell-based
Settings: product from 0.25 mM ALA fed to cells; formed as the acyl-CoA

T1 sequence (C1MMV2 entry or part of it): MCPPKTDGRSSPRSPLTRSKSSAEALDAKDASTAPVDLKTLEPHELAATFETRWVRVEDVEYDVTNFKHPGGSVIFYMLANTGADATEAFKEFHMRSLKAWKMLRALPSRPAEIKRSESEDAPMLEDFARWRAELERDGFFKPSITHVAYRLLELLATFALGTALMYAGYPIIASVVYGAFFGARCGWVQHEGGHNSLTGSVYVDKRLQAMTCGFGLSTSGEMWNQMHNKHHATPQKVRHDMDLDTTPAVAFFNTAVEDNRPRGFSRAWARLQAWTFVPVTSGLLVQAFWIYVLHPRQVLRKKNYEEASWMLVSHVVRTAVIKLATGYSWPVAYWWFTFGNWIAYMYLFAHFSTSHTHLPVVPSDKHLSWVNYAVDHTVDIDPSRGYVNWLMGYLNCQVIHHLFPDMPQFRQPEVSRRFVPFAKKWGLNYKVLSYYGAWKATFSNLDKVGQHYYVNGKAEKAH

CC/C=C\C/C=C\C/C=C\C/C=C\CCCCC(=O)O [stearidonic acid]
whole-cell biotransformation in yeast, GC-MS of fatty acid methyl esters: Desaturase activity is represented by the conversion rate of ALA to SDA
